Columns and labels:
Assay type in all cases: cell-based
[1] = tested on: Enterobacter cloacae; test: MIC against Gram-negative bacteria: Enterobacter cloacae; conditions: 5×10^5 CFU/mL
In short: (§1)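 Two-fold serial dilutions of each purified human EGF domain protein, three replicate wells per level, were combined with bacteria at a final 5×10^5 CFU/mL in LB. Cultures were shaken at 175 rpm, 37° C. The MIC was taken as the minimum concentration preventing growth.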

[2] = tested on: Citrobacter diversus; test: MIC against Gram-negative bacteria: Citrobacter diversus; conditions: 5×10^5 CFU/mL
In short: as §1

[3] = tested on: Proteus vulgaris; test: MIC against Gram-negative bacteria: Proteus vulgaris; conditions: 5×10^5 CFU/mL
In short: as §1

[4] = tested on: Klebsiella pneumonia; test: MIC against Gram-negative bacteria: Klebsiella pneumonia; conditions: 5×10^5 CFU/mL
In short: as §1

[5] = tested on: E. coli BL21; test: MIC against Gram-negative bacteria: E. coli BL21; conditions: 5×10^5 CFU/mL
In short: as §1

[6] = tested on: Pseudomonas aeruginosa; test: MIC against Gram-negative bacteria: Pseudomonas aeruginosa; conditions: 5×10^5 CFU/mL
In short: as §1

[7] = tested on: Moraxella catarrhalis; test: MIC against Gram-negative bacteria: Moraxella catarrhalis; conditions: 5×10^5 CFU/mL
In short: as §1

[8] = tested on: E. coli DH5α; test: Antibacterial activity: MIC and growth curve against E. coli DH5α in 96-well plate; conditions: minimal inhibitory concentration against E. coli DH5α; 96-well plate, 5×10^5 CFU/mL, 37° C., judged after 8 h
In short: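 Log-phase bacteria (OD600 ~0.5) resuspended in LB at 5×10^5 CFU/mL, exposed to recombinant protein at 50, 25, 12.5 μg/mL final in triplicate, 37 °C shaking at 175 rpm. OD600 read every 30 min; MIC is lowest concentration showing no growth.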

[9] = tested on: Proteus mirabilis; test: MIC against Gram-negative bacteria: Proteus mirabilis; conditions: 5×10^5 CFU/mL
In short: as §1

[10] = tested on: Aeromonas hydrophila; test: MIC against Gram-negative bacteria: Aeromonas hydrophila; conditions: 5×10^5 CFU/mL
In short: as §1

[11] = tested on: Serratia marcescens; test: MIC against Gram-negative bacteria: Serratia marcescens; conditions: 5×10^5 CFU/mL
In short: as §1

[12] = E. cloacae, 10 h cultivation at 37° C.
[13] = C. diversus, 10 h cultivation at 37° C.
[14] = P. vulgaris, 10 h cultivation at 37° C.
[15] = K. pneumonia, 10 h cultivation at 37° C.
[16] = E. coli BL21, 10 h cultivation at 37° C.
[17] = P. aeruginosa, 10 h cultivation at 37° C.
[18] = M. catarrhalis, 10 h cultivation at 37° C.
[19] = P. mirabilis, 10 h cultivation at 37° C.
[20] = A. hydrophila, 10 h cultivation at 37° C.
[21] = S. marcescens, 10 h cultivation at 37° C.
[22] = Enterobacter cloacae, 96-well plate, 37° C., 10 h
[23] = Citrobacter diversus, 96-well plate, 37° C., 10 h
[24] = Proteus vulgaris, 96-well plate, 37° C., 10 h
[25] = Klebsiella pneumonia, 96-well plate, 37° C., 10 h
[26] = E. coli BL21, 96-well plate, 37° C., 10 h
[27] = Pseudomonas aeruginosa, 96-well plate, 37° C., 10 h
[28] = Moraxella catarrhalis, 96-well plate, 37° C., 10 h
[29] = Proteus mirabilis, 96-well plate, 37° C., 10 h
[30] = Aeromonas hydrophila, 96-well plate, 37° C., 10 h
[31] = Serratia marcescens, 96-well plate, 37° C., 10 h
[32] = Enterobacter cloacae, 10 h cultivation at 37° C.
[33] = Citrobacter diversus, 10 h cultivation at 37° C.
[34] = Proteus vulgaris, 10 h cultivation at 37° C.
[35] = Klebsiella pneumonia, 10 h cultivation at 37° C.
[36] = Pseudomonas aeruginosa, 10 h cultivation at 37° C.
[37] = Moraxella catarrhalis, 10 h cultivation at 37° C.
[38] = Proteus mirabilis, 10 h cultivation at 37° C.
[39] = Aeromonas hydrophila, 10 h cultivation at 37° C.
[40] = Serratia marcescens, 10 h cultivation at 37° C.

PRT259 (GGCHTDALCSYVGPGQSRCTCKLGFAGDGYQC; listed as Homo sapiens)
MIC (μg/mL) E. cloacae [1, 12]: 50 µg/mL
MIC (μg/mL) C. diversus [2, 13]: 50 µg/mL
MIC (μg/mL) P. vulgaris [3, 14]: 50 µg/mL
MIC (μg/mL) K. pneumonia [4, 15]: 12.5 µg/mL
MIC (μg/mL) E. coli BL21 [5, 16]: 25 µg/mL
MIC (μg/mL) P. aeruginosa [6, 17]: 50 µg/mL
MIC (μg/mL) M. catarrhalis [7, 18]: 12.5 µg/mL
MIC [8]: 12.5 µg/mL
MIC (μg/mL) P. mirabilis [9, 19]: 25 µg/mL
MIC (μg/mL) A. hydrophila [10, 20]: 12.5 µg/mL
MIC (μg/mL) S. marcescens [11, 21]: 25 µg/mL

PRT14 (PPKPCDSQPCFHGGTCQDWALGGGFTCSCPAGRGGAVCE; listed as Homo sapiens)
MIC (μg/mL) E. cloacae [1, 22]: 25 µg/mL
MIC (μg/mL) C. diversus [2, 23]: 25 µg/mL
MIC (μg/mL) P. vulgaris [3, 24]: 50 µg/mL
MIC (μg/mL) K. pneumonia [4, 25]: 12.5 µg/mL
MIC (μg/mL) E. coli BL21 [5, 26]: 50 µg/mL
MIC (μg/mL) P. aeruginosa [6, 27]: 25 µg/mL
MIC (μg/mL) M. catarrhalis [7, 28]: 12.5 µg/mL
MIC [8]: 25 µg/mL
MIC (μg/mL) P. mirabilis [9, 29]: 25 µg/mL
MIC (μg/mL) A. hydrophila [10, 30]: 50 µg/mL
MIC (μg/mL) S. marcescens [11, 31]: 12.5 µg/mL

PRT219 (DIDECRTSSYLCQYQCVNEPGKFSCMCPQGYQVVRSRTCQ; listed as Homo sapiens)
MIC (μg/mL) E. cloacae [1, 12]: 12.5 µg/mL
MIC (μg/mL) C. diversus [2, 13]: 12.5 µg/mL
MIC (μg/mL) P. vulgaris [3, 14]: 25 µg/mL
MIC (μg/mL) K. pneumonia [4, 15]: 12.5 µg/mL
MIC (μg/mL) E. coli BL21 [5, 16]: 25 µg/mL
MIC (μg/mL) P. aeruginosa [6, 17]: 50 µg/mL
MIC (μg/mL) M. catarrhalis [7, 18]: 12.5 µg/mL
MIC [8]: 12.5 µg/mL
MIC (μg/mL) P. mirabilis [9, 19]: 12.5 µg/mL
MIC (μg/mL) A. hydrophila [10, 20]: 12.5 µg/mL
MIC (μg/mL) S. marcescens [11, 21]: 12.5 µg/mL

PRT475 (VQNTCKDNPCGRGQCLITQSPPYYRCVCKHPYTGPSCS; listed as Homo sapiens)
MIC against E. cloacae ([1]; 96-well plate, 37° C., 10 h): 25 µg/mL
MIC against C. diversus ([2]; 96-well plate, 37° C., 10 h): 25 µg/mL
MIC against P. vulgaris ([3]; 96-well plate, 37° C., 10 h): 12.5 µg/mL
MIC against K. pneumonia ([4]; 96-well plate, 37° C., 10 h): 25 µg/mL
MIC against E. coli BL21 ([5]; 96-well plate, 37° C., 10 h): 12.5 µg/mL
MIC against P. aeruginosa ([6]; 96-well plate, 37° C., 10 h): 50 µg/mL
MIC against M. catarrhalis ([7]; 96-well plate, 37° C., 10 h): 12.5 µg/mL
MIC [8]: 50 µg/mL
MIC against P. mirabilis ([9]; 96-well plate, 37° C., 10 h): 50 µg/mL
MIC against A. hydrophila ([10]; 96-well plate, 37° C., 10 h): 25 µg/mL
MIC against S. marcescens ([11]; 96-well plate, 37° C., 10 h): 50 µg/mL

PRT1476 (DVDECSLKPSICGTAVCKNIPGDFECECPEGYRYNLKSKSCE; listed as Homo sapiens)
MIC against E. cloacae [1, 32]: 12.5 µg/mL
MIC against C. diversus [2, 33]: 12.5 µg/mL
MIC against P. vulgaris [3, 34]: 12.5 µg/mL
MIC against K. pneumonia [4, 35]: 50 µg/mL
MIC against E. coli BL21 [5, 16]: 25 µg/mL
MIC against P. aeruginosa [6, 36]: 12.5 µg/mL
MIC against M. catarrhalis [7, 37]: 25 µg/mL
MIC [8]: 12.5 µg/mL
MIC against P. mirabilis [9, 38]: 50 µg/mL
MIC against A. hydrophila [10, 39]: 50 µg/mL
MIC against S. marcescens [11, 40]: 25 µg/mL

PRT1346 (EVNECQSNPCLNNAVCEDQVGGFLCKCPPGFLGTRCG; listed as Homo sapiens)
MIC against E. cloacae [1, 32]: 12.5 µg/mL
MIC against C. diversus [2, 33]: 25 µg/mL
MIC against P. vulgaris [3, 34]: 50 µg/mL
MIC against K. pneumonia [4, 35]: 25 µg/mL
MIC against E. coli BL21 [5, 16]: 25 µg/mL
MIC against P. aeruginosa [6, 36]: 50 µg/mL
MIC against M. catarrhalis [7, 37]: 12.5 µg/mL
MIC [8]: 12.5 µg/mL
MIC against P. mirabilis [9, 38]: 25 µg/mL
MIC against A. hydrophila [10, 39]: 50 µg/mL
MIC against S. marcescens [11, 40]: 25 µg/mL

PRT1296 (GCEPCHKKVCAHGTCQPSSQAGFTCECQEGWMGPLCD; listed as Homo sapiens)
MIC against E. cloacae [1, 22]: 25 µg/mL
MIC against C. diversus [2, 23]: 50 µg/mL
MIC against P. vulgaris [3, 24]: 50 µg/mL
MIC against K. pneumonia [4, 25]: 50 µg/mL
MIC against E. coli BL21 [5, 26]: 12.5 µg/mL
MIC against P. aeruginosa [6, 27]: 25 µg/mL
MIC against M. catarrhalis [7, 28]: 12.5 µg/mL
MIC [8]: 50 µg/mL
MIC against P. mirabilis [9, 29]: 25 µg/mL
MIC against A. hydrophila [10, 30]: 100 µg/mL
MIC against S. marcescens [11, 31]: 25 µg/mL

PRT647 (DVDECLRPDVCGEGHCVNTVGAFRCEYCDSGYRMTQRGRCE; listed as Homo sapiens)
MIC E. cloacae ([1]; 96-well plate, 37° C., 10 h): 12.5 µg/mL
MIC C. diversus ([2]; 96-well plate, 37° C., 10 h): 12.5 µg/mL
MIC P. vulgaris ([3]; 96-well plate, 37° C., 10 h): 50 µg/mL
MIC K. pneumonia ([4]; 96-well plate, 37° C., 10 h): 50 µg/mL
MIC E. coli BL21 ([5]; 96-well plate, 37° C., 10 h): 12.5 µg/mL
MIC P. aeruginosa ([6]; 96-well plate, 37° C., 10 h): 25 µg/mL
MIC M. catarrhalis ([7]; 96-well plate, 37° C., 10 h): 50 µg/mL
MIC [8]: 25 µg/mL
MIC P. mirabilis ([9]; 96-well plate, 37° C., 10 h): 12.5 µg/mL
MIC A. hydrophila ([10]; 96-well plate, 37° C., 10 h): 50 µg/mL
MIC S. marcescens ([11]; 96-well plate, 37° C., 10 h): 25 µg/mL

PRT826 (FGVGCEHTCSCRNGGLCHASNGSCSCGLGWTGRHCE; listed as Homo sapiens)
MIC (μg/mL) E. cloacae [1, 12]: 50 µg/mL
MIC (μg/mL) C. diversus [2, 13]: 12.5 µg/mL
MIC (μg/mL) P. vulgaris [3, 14]: 12.5 µg/mL
MIC (μg/mL) K. pneumonia [4, 15]: 100 µg/mL
MIC (μg/mL) E. coli BL21 [5, 16]: 50 µg/mL
MIC (μg/mL) P. aeruginosa [6, 17]: 25 µg/mL
MIC (μg/mL) M. catarrhalis [7, 18]: 25 µg/mL
MIC [8]: 12.5 µg/mL
MIC (μg/mL) P. mirabilis [9, 19]: 12.5 µg/mL
MIC (μg/mL) A. hydrophila [10, 20]: 12.5 µg/mL
MIC (μg/mL) S. marcescens [11, 21]: 12.5 µg/mL

PRT1227 (NLKLCDASNHCDRHGVCNNFNHCHCEKGYNPPYCQ; listed as Homo sapiens)
MIC against E. cloacae [1, 22]: 12.5 µg/mL
MIC against C. diversus [2, 23]: 12.5 µg/mL
MIC against P. vulgaris [3, 24]: 25 µg/mL
MIC against K. pneumonia [4, 25]: 25 µg/mL
MIC against E. coli BL21 [5, 26]: 25 µg/mL
MIC against P. aeruginosa [6, 27]: 12.5 µg/mL
MIC against M. catarrhalis [7, 28]: 12.5 µg/mL
MIC [8]: 50 µg/mL
MIC against P. mirabilis [9, 29]: 12.5 µg/mL
MIC against A. hydrophila [10, 30]: 12.5 µg/mL
MIC against S. marcescens [11, 31]: 12.5 µg/mL

Source: patent US9833497B2, “Human originated EGF domain proteins and use of the same” (CHENGDU SOURCEBIO LIMITED-LIABILITY COMPANY, priority 2013, dated 2017)
